Common to all, as to format: biochemical
In test [1] the target is T1, complex I in mitochondrial membranes (Yarrowia lipolytica, UniProt Q9B6E8+Q9UUT7+Q9UUU1).
T1 sequence (Q9B6E8 1-341): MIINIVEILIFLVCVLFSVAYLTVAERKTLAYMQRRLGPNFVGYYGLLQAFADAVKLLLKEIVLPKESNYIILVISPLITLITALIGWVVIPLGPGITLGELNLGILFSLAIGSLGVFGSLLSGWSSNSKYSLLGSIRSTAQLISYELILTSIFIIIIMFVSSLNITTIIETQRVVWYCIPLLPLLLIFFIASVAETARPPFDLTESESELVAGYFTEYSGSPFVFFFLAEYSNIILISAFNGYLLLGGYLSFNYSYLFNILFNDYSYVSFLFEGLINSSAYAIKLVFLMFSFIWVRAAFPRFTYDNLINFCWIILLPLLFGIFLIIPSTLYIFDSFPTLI
T1 sequence (Q9UUU1 22-466): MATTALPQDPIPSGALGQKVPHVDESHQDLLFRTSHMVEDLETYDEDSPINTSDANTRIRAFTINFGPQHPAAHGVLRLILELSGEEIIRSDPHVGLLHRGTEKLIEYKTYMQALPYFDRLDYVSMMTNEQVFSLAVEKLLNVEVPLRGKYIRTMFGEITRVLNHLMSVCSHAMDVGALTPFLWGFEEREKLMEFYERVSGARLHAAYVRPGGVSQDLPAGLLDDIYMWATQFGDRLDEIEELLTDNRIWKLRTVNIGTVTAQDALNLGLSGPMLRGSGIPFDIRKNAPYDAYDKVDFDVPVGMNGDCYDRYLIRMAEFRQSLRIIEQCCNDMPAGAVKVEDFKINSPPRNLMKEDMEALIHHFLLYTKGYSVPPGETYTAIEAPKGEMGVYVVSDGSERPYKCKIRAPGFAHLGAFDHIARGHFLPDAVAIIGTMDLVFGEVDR
T1 sequence (Q9UUT7 28-210): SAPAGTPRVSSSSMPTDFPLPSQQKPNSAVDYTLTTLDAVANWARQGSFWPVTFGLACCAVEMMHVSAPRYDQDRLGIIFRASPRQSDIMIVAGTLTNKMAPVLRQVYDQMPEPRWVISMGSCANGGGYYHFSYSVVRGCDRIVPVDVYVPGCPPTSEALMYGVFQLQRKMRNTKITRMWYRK
Nature of the test: NADH oxidation in Y. lipolytica mitochondrial membranes. How it is done: (§1) All catalytic activity assays were conducted at 32°C in 96-well plates using a Molecular Devices Spectramax 384 plus plate reader. Catalysis was initiated by addition of 200 μM NADH and monitored at 340 and 380 nm (ε340–380 = 4.81 mM^−1 cm^−1). Linear rates were measured for all assays, inhibitors were added from dimethyl sulfoxide stock solutions as required, and inhibitor-insensitive rates (using either 1 μM piericidin A or 1.4 μM IACS-2858) were subtracted from each measured rate. Membrane samples were prepared as described previously ([17], [20], [59], [60]), diluted to 20 μg ml^−1 in 10 mM tris-SO4 (pH 7.5) and 250 mM sucrose, and supplemented with 3 μM horse heart cytochrome c (except for P. denitrificans, for which the activity is unaffected by the addition). Mouse, bovine, and yeast (Y. lipolytica) complex I were purified as described previously ([17], [20], [59]); diluted to 0.5 nM in 20 mM tris-HCl (pH 7.5), 0.15% asolectin, and 0.15% CHAPS; and assayed using either 200 μM dQ or 200 μM ubiquinone-1 (Sigma-Aldrich). Complex I was purified from P. denitrificans strain Pd1222 ([61]) and provided by O. D. Jarman (MRC Mitochondrial Biology Unit, University of Cambridge); it was assayed likewise but in 10 mM MES-HCl (pH 6.5), 25 mM NaCl, and 2 mM CaCl2. […]

Test [2] concerns the target T2, complex I in mitochondrial membranes (Mus musculus, UniProt P03888+Q91WD5+Q9DC70).
T2 construct: from tissue; host or cells: mouse (C57BL/6) heart mitochondria
Nature of the test: NADH oxidation in mouse mitochondrial membranes. The following applies: M. musculus membranes 20 μg ml−1; ± SE. On the procedure: as §1

A further test addresses T3, bovine complex I (Bos taurus, UniProt P03887+P17694+P42026).
T3 construct: Complex I from bovine heart were prepared; from tissue; host or cells: bovine heart mitochondria
Nature of the test: NADH:decylubiquinone oxidoreduction by purified bovine complex I. As to conditions: purified B. taurus complex I, dQ; ± SE. How it is done:
as §1

For test [3], the target named is T4, complex I in mitochondrial membranes (Bos taurus, UniProt P03887+P17694+P42026).
T4 construct: Complex I from bovine heart were prepared; from tissue; host or cells: bovine heart mitochondria
Nature of the test: NADH oxidation in bovine mitochondrial membranes. As to conditions: B. taurus membranes 20 μg ml−1; ± SE. How it is done: as §1

The target of test [4] is T5, complex I in bacterial membranes (Paracoccus denitrificans, UniProt P29916+P29918+P29920).
T5 construct: Complex I was purified from P. denitrificans strain Pd1222; endogenous in cells; host or cells: P. denitrificans strain Pd1222
Nature of the test: NADH oxidation in P. denitrificans bacterial membranes. As to conditions: P. denitrificans membranes 20 μg ml−1. How it is done: as §1

For test [5], the target named is T6, complex I in bovine SMPs (Bos taurus, UniProt P03887+P17694+P42026).
T6 construct: Complex I from bovine heart were prepared; from tissue; host or cells: bovine heart mitochondria
Nature of the test: Reverse electron transport (succinate oxidation-driven NAD+ reduction) in bovine heart submitochondrial particles. How it is done:
All catalytic activity assays were conducted at 32°C in 96-well plates using a Molecular Devices Spectramax 384 plus plate reader. Catalysis was initiated by addition of 200 μM NADH and monitored at 340 and 380 nm (ε340–380 = 4.81 mM^−1 cm^−1). Linear rates were measured for all assays, inhibitors were added from dimethyl sulfoxide stock solutions as required, and inhibitor-insensitive rates (using either 1 μM piericidin A or 1.4 μM IACS-2858) were subtracted from each measured rate. Membrane samples were prepared as described previously ([17], [20], [59], [60]), diluted to 20 μg ml^−1 in 10 mM tris-SO4 (pH 7.5) and 250 mM sucrose, and supplemented with 3 μM horse heart cytochrome c (except for P. denitrificans, for which the activity is unaffected by the addition). Mouse, bovine, and yeast (Y. lipolytica) complex I were purified as described previously ([17], [20], [59]); diluted to 0.5 nM in 20 mM tris-HCl (pH 7.5), 0.15% asolectin, and 0.15% CHAPS; and assayed using either 200 μM dQ or 200 μM ubiquinone-1 (Sigma-Aldrich). Complex I was purified from P. denitrificans strain Pd1222 ([61]) and provided by O. D. Jarman (MRC Mitochondrial Biology Unit, University of Cambridge); it was assayed likewise but in 10 mM MES-HCl (pH 6.5), 25 mM NaCl, and 2 mM CaCl2. Bovine SMPs were prepared as described previously ([61]) and diluted to 20 μg ml^−1 in 10 mM tris-SO4 (pH 7.5) and 250 mM sucrose for FET and RET assays. The RET assay was initiated using 1 mM NAD^+, 1 mM ATP, 10 mM succinate, 1 mM cyanide, and 2 mM MgSO4, in the absence of NADH. AOX from Trypanosoma brucei brucei was prepared as described previously ([23]). Complex I proteoliposomes were assayed using 10 mM Mops-KOH (pH 7.5), 50 mM KCl, and AOX (10 μg ml^−1).

In test [6] the target is T6, complex I in bovine SMPs. Nature of the test: Forward electron transport (NADH oxidation) in bovine heart submitochondrial particles. The following applies: NADH oxidation rate, ± SE. On the procedure:
as §1

In the case of `CS(=O)(=O)C1CCN(c2cccc(Cn3cc(-c4nc(-c5ccc(OC(F)(F)F)cc5)no4)ccc3=O)c2)CC1` [IACS-2858, 1-(3-(4-(Methylsulfonyl)piperidin-1-yl)benzyl)-5-(3-(4-(trifluoromethoxy)phenyl)-1,2,4-oxadiazol-5-yl)pyridin-2(1H)-one], the IC50 was about 7.2 µM in test [1]; 1.4 ± 0.1 nM in test [2]; 9.3 ± 0.7 nM at bovine complex I; 3.4 ± 0.3 nM in test [3]; about 61 µM in test [4]; 3.1 ± 0.1 nM against complex I in bovine SMPs [5] (bovine SMPs, succinate oxidation-driven NAD+ reduction rate, ± SE). For the same compound, half-maximal inhibition on complex I in bovine SMPs [6] (IC50) was put at 6.4 ± 0.2 nM. Moreover, on complex I in bovine SMPs [5] (bovine heart SMPs, RET versus FET), the “inhibition of RET favoured over FET” value is reported as over 2 fold.

Source of the values: paper PMC8121435, “Cork-in-bottle mechanism of inhibitor binding to mammalian complex I” (Science Advances, 2021).
